Results from patent publication US20050011012A1, “Multifunctional antimicrobial dyes” (Regents of the University of California, priority 2003, published 2005).
Where two headings read alike, the source gives them in different places.

Key:
[1] = test system: Escherichia coli; details: pH 3; for Antimicrobial efficacy of treated fabric, E. coli: Orlon treated with 1 mMol/L compound, 10^5~10^6 CFU/mL; for Reduction percentage of E. coli: Orlon treated with 1 mMol/L dye
Description: (§1) The dyeing of acrylic fabrics follows a traditional exhaustion dyeing procedure (Munn, The dyeing of synthetic-polymer and acetate fibres, England: Dyers Company Publications Trust (1979)). Dye solutions were prepared with the QAS-dyes of the present invention, sodium sulfate (2 g/L), and Triton X-100 (0.05%). The pH of the dyeing bath was adjusted to 3 by buffer solutions containing sulfuric acid, sodium acetate, and acetic acid. The bath ratio was kept at 1:50. The Orlon fabrics were immersed into the dyeing bath at initial dyeing temperatures for a certain period of time, and then fixed at 100° C. for another period of time to elevate the interactions between the fabrics and the QAS-dyes.
(§2) The antimicrobial activities of the treated Orlon fabrics were evaluated against Escherichia coli (E. coli, Gram-negative) and Staphylococcus aureus (S. aureus, Gram-positive) according to AATCC test method 100-1999. In this method, disposable petri dishes containing fabric swatches weighing about 1 g were challenged with 1.0±0.1 mL of bacteria inoculum. After a certain period of contact time, the challenged fabric swatches were transferred to 250 mL containers with 100 mL of sterilized water, and the resultant supernatant was diluted 10^1, 10^2, 10^3, and 10^4 times. Then, 100 μL of each dilution was placed onto nutrient agar and incubated at 37° C. for 18 hours. The same procedure was applied to an untreated Orlon fabric swatch as a control. Finally, viable bacteria colonies on the agar plate were counted, and the amount of bacterial reduction was calculated using Eq. (2): Reduction percentage(%)=(A-B)/A×100%, (2) where A represents the number of bacterial colonies in the control, and B represents the number of bacterial colonies in the treated Orlon fabrics.
(§3) The surface resistivity of the treated fabrics was measured by a portable surface resistivity/resistance meter purchase from Monroe Electronics, Inc (Model 272A). The visual color yields of the dyed fabrics were measured by GretagMacbeth™ Color-Eye® 7000A spectrophotometer. The visual color yields of the fabrics were expressed by K/S values, which were derived from the reflectance measurement. The treated fabric was washed in a Launder-Ometer® according to AATCC Test Method 61-2001 to evaluate the wash durability of the treated fabrics. In this method, one cycle of a Launder-Ometer wash is equivalent to five machine washes using a home laundry machine.

[2] = test system: Staphylococcus aureus; details: Orlon treated with 1 mMol/L compound, pH 3, 10^5~10^6 CFU/mL, contact time 6 hrs
Description: as §1, §2, §3

[3] = DSC, 10° C./min, nitrogen
[4] = for Relative hydrolytic stability among mono-QAS substituted dyes: acidic conditions, 100° C.
Description: Hydrolytic stability analysis: The dyes were dissolved in aqueous solutions at a concentration of 0.4-1 mMol/L, and the solutions were adjusted to various pH values by using sulfuric acid, acetic acid, sodium acetate, sodium bicarbonate, and/or sodium carbonate. The solutions were heated to the required temperatures. At different time intervals, solution samples were taken and measured by a HITACHI U-2000 spectrophotometer to obtain the UV-vis adsorption spectra. The results were compared with the spectra of original dye solutions to determine the stability of the dyes.
After hydrolysis, the precipitates formed in the dye solutions were filtered and thoroughly washed with deionized water. The resultant precipitates were recrystallized using acetone for NMR analysis. NMR spectra were recorded on a Varian Inova 400 spectrometer. The residual filtrate was extracted by chloroform, and the aqueous part was dried under vacuum at room temperature and analyzed by NMR.

Structure (SMILES) | Antimicrobial efficacy of treated fabric, E. coli ([1]; 0 washes, contact time 6 hrs) [%] | Antimicrobial efficacy of treated fabric, E. coli ([1]; 5 washes, contact time 6 hrs) [%] | Antimicrobial efficacy of treated fabric, E. coli ([1]; 10 washes, contact time 6 hrs) [%] | Antimicrobial efficacy of treated fabric, E. coli ([1]; 20 washes, contact time 6 hrs) [%] | Antimicrobial efficacy of treated fabric, S. aureus ([2]; 0 washes) [%] | Antimicrobial efficacy of treated fabric, S. aureus ([2]; 5 washes) [%] | Antimicrobial efficacy of treated fabric, S. aureus ([2]; 10 washes) [%] | Antimicrobial efficacy of treated fabric, S. aureus ([2]; 20 washes) [%] | Temperature up to which no obvious changes are observed (dyes stable below) [3] | Relative hydrolytic stability among mono-QAS substituted dyes [4] | also measured
CCCC[N+](C)(C)CC(=O)Nc1ccc(NC(=O)C[N+](C)(C)CCCC)c2c1C(=O)c1ccccc1C2=O.[Cl-].[Cl-] [bi-4] | 97.1 | 37.5 | 0 | 0 | 87.5 | 36.4 | 0 | 0 | – | – | –
CCCCCCCCCCCC[N+](C)(C)CC(=O)Nc1cccc2c1C(=O)c1ccccc1C2=O.[Cl-] [m-12] | 99.9 | 81.3 | 0 | 0 | 99.9 | 75.0 | 0 | 0 | up to 190 °C | lowest stability | –
CCCC[N+](C)(C)CC(=O)Nc1cccc2c1C(=O)c1ccccc1C2=O.[Cl-] [m-4] | 95.7 | 44.0 | 0 | 0 | 86.4 | 50.0 | 0 | 0 | up to 190 °C | – | Time the dye solution was stable (almost unchanged visible spectra) ([4]; 0.4 mMol/L, pH 5, 100° C.): about six
CCCCCCCC[N+](C)(C)CC(=O)Nc1ccc(NC(=O)C[N+](C)(C)CCCCCCCC)c2c1C(=O)c1ccccc1C2=O.[Cl-].[Cl-] [bi-8] | 98.6 | 50.0 | 46.7 | 0 | 93.9 | 50.0 | 37.5 | 0 | – | – | –
CCCCCCCCCCCC[N+](C)(C)CC(=O)Nc1ccc(NC(=O)C[N+](C)(C)CCCCCCCCCCCC)c2c1C(=O)c1ccccc1C2=O.[Cl-].[Cl-] [bi-12] | 99.9 | 99.3 | 60.0 | 0 | 99.9 | 81.8 | 45.5 | 0 | – | – | Reduction percentage of E. coli ([1]; E. coli 10^5~10^6 CFU/mL, contact time 3 hrs): 93.3%; Reduction percentage of E. coli ([1]; E. coli 10^5~10^6 CFU/mL, contact time 6 hrs): 99.9%; Reduction percentage of E. coli ([1]; E. coli 10^5~10^6 CFU/mL, contact time 9 hrs): 93.3%; Reduction percentage of E. coli ([1]; E. coli 10^5~10^6 CFU/mL, contact time 12 hrs): 66.7%; Reduction percentage of E. coli ([1]; E. coli 10^6~10^7 CFU/mL, contact time 3 hrs): 92.5%; Reduction percentage of E. coli ([1]; E. coli 10^6~10^7 CFU/mL, contact time 6 hrs): 95.8%; Reduction percentage of E. coli ([1]; E. coli 10^6~10^7 CFU/mL, contact time 9 hrs): 83.3%; Reduction percentage of E. coli ([1]; E. coli 10^6~10^7 CFU/mL, contact time 12 hrs): 50%; Reduction percentage of E. coli ([1]; E. coli 10^7~10^8 CFU/mL, contact time 3 hrs): 86.7%; Reduction percentage of E. coli ([1]; E. coli 10^7~10^8 CFU/mL, contact time 6 hrs): 0%; Reduction percentage of E. coli ([1]; E. coli 10^7~10^8 CFU/mL, contact time 9 hrs): 0%; Reduction percentage of E. coli ([1]; E. coli 10^7~10^8 CFU/mL, contact time 12 hrs): 0%
CCCCCCCC[N+](C)(C)CC(=O)Nc1cccc2c1C(=O)c1ccccc1C2=O.[Cl-] [m-8] | 98.6 | 44.0 | 0 | 0 | 92.4 | 37.5 | 0 | 0 | up to 190 °C | lower stability | –
